Where two headings read alike, the source gives them in different places.
Experiments:
[1] = molecular target: butyrylcholinesterase (BChE) (Equus caballus, UniProt P81908); assay: biochemical; assay type: biochemical; conditions: mean ± standard deviation, triplicate
[2] = previously tested; read-out: DPPH IC50; cited from earlier work
[3] = molecular target: Acetylcholinesterase (AChE) (Electrophorus electricus, UniProt O42275); assay: biochemical; assay type: biochemical; conditions: mean ± standard deviation, triplicate; '-' = no inhibitory activity
Sequence of Acetylcholinesterase (AChE) (O42275 24-633): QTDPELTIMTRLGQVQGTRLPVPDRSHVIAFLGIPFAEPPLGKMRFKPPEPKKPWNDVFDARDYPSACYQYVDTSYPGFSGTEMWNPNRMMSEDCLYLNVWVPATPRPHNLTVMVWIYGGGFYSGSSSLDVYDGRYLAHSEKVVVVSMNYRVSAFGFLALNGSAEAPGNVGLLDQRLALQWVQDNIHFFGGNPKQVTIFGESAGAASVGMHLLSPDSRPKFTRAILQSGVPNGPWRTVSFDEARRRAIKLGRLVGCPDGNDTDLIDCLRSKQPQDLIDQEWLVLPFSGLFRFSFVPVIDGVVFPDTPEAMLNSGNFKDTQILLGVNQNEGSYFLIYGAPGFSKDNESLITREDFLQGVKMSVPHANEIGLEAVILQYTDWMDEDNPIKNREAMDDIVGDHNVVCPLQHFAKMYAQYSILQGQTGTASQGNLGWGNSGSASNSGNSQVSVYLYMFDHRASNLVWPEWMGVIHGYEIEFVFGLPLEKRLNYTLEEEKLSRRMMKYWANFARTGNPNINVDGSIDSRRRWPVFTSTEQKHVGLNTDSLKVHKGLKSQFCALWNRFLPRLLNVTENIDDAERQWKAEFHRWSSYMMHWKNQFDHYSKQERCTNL

[4] = DPPH radical scavenging assay; conditions: 30 min at 25 °C; '-' = did not capture the radical
Experimental: Antioxidant activity of the tested compounds was measured in terms of hydrogen donating or radical scavenging ability using the stable radical 2,2′-diphenyl-1-picrylhydrazyl (DPPH). The 50 μL of various concentrations of tested solutions (5 μM–1000 μM) were placed in a cuvette, 1 mL of ethanolic solution of DPPH was added, and the final DPPH concentration was kept constant (c = 8 × 10^−4 M). The mixture was incubated for 30 min at 25 °C. […] All determinations were performed in triplicate. The concentrations of tested compounds were expressed as final concentrations. Inhibition of DPPH expressed in percentage was calculated according to the equation:(2) Inhibition (%)=AC(0)−AC(t)/AC(0)·100 where AC(0) is the absorbance of the control at t = 0 min, and AC(t) is the absorbance of the antioxidant at t = 30 min. Data were used to calculate the IC50 value by a nonlinear fit of compound concentration values vs. inhibition percentage.

[5] = Protonation constants by potentiometric titration with spectrophotometric detection; assay type: physicochemical; conditions: for Protonation constant lgK1: titration from pH 10, for trans-1 first of two protonation steps
Description: (§1) The third one in this equilibrium system must be a complex between the previous two species. Detailed fitting studies by application of the PSEQUAD program confirmed the existence of a complex with a 1:1 (FeL^2+) composition. Furthermore, the apparent formation constant of these species (for the reaction Fe^3+ + HL ⇌ FeL^2+ + H^+) and the individual spectrum of the species could be estimated by this procedure. […] The apparent formation constant determined from this spectrum series and that regarding the titration with the ligand was lgK’FeL = 4.75 ± 0.10. Using this apparent formation constant, the molar fractions of the free Fe^3+ and the 1:1 complex could be calculated as functions of the (protonated) ligand concentration (pHL), as shown by the inset of Figure 12a. Since the spectrophotometric titration was carried out in an acidic solution, in order to estimate the formation constant for the Fe^3+ + L^− ⇌ FeL^2+ reaction, the protonation constant of the deprotonated ligand (L^−) was also determined (by potentiometric titration, starting from the fully deprotonated form at pH = 10, Figure 13), lgK1 = 7.81 ± 0.15. The sum of the apparent formation constant and the protonation constant gives the equilibrium constant regarding the reaction above (lgKFeL = 12.56 ± 0.15).
(§2) The protonation and complex formation constants were determined similarly for the other three compounds. The corresponding figures can be found in the Supplementary Materials (Figures S67 and S68 for cis-2, Figures S69 and S70 for cis-4, and Figures S71 and S72 for trans-1). In the case of trans-1, two protonation steps were observed due to the two OH groups. For calculating the formation constant, lgK2 was taken into account, corresponding to the proton in the OH group on the pyranone ring. This can be exchanged by the Fe^3+ ion easier than the other proton in the phenolic moiety.
A 0.01–0.01 M phosphate–borate–acetate buffer solution was used for potentiometric titration. A 50 cm^3 beaker was filled with 25 cm^3 of buffer solution containing the appropriate amount of ligand, and the pH was adjusted to 10.0 by adding 2 M NaOH solution. The pH was determined using a Consort C3010 multi-parameter analyzer (Consort bvba, Turnhout, Belgium) equipped with a combined glass electrode. The solution was circulated with an IKA PA-SF (IKA Labortechnik, Staufen, Germany) peristaltic pump through a Hellma (176.000-QS 10 mm) flow through the cuvette. Titration was carried out with 6 M H2SO4 solution. The spectra were recorded with a Specord S600 spectrophotometer after pH stabilization.

[6] = Fe3+ complex formation constants by spectrophotometric titration (PSEQUAD); assay type: physicochemical; conditions: for Apparent formation constant lgK'FeL, Fe^3+ + HL ⇌ FeL^2+ + H^+: 1:1 complex; for Formation constant lgKFeL, Fe^3+ + L^− ⇌ FeL^2+: sum of apparent formation constant and protonation constant
Experimental: Since Fe^3+ ions strongly hydrolyze, acidic solutions were applied for the spectrophotometric titrations to determine the complex formation constants. Both types of titrations were carried out: increasing the iron(III) concentration at constant ligand concentration and increasing ligand concentration at constant CFe(III).
as §1, §2
Two titration series were used to determine the stability constants of equilibrium systems containing Fe^3+ and ligand. The iron(III) content was increased at constant ligand content, the ligand concentration was increased at constant Fe(III) content, and the spectral changes were recorded with a Specord S600 spectrophotometer (Analytic Jena GmbH, Jena, Germany) in the 190–900 nm wavelength range. […] The two series were evaluated together using PSEQUAD software in the 210–430 nm range.

Sequence of butyrylcholinesterase (BChE) (P81908 whole entry): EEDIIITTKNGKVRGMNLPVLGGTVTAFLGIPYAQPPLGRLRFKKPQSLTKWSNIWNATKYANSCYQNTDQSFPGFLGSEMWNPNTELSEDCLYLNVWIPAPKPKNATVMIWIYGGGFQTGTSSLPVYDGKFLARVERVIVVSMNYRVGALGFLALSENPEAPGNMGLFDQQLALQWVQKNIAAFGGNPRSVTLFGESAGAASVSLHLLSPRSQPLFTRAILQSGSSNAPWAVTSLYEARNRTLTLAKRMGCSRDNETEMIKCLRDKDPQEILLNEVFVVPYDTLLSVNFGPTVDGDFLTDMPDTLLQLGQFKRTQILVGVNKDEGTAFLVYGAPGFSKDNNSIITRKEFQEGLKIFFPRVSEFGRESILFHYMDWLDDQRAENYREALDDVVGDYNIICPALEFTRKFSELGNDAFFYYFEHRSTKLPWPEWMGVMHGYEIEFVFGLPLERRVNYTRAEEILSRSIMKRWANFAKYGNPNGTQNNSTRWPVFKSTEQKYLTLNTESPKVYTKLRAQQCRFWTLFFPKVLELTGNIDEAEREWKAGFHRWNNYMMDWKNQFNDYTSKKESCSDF

| SMILES | IC50 [1] [µM] | IC50 [2] [µM] | IC50 [3] [µM] | BChE IC50 [1] | DPPH IC50 [4] | AChE IC50 [3] | Protonation constant lgK1 [5] | Apparent formation constant lgK'FeL, Fe^3+ + HL ⇌ FeL^2+ + H^+ ([6]; acidic solution) | IC50 [4] [µM] | Formation constant lgKFeL, Fe^3+ + L^− ⇌ FeL^2+ [6] | Protonation constant lgK2 ([5]; trans-1: proton of the OH group on the pyranone ring) | Formation constant lgKFeHL, Fe^3+ + H2L ⇌ FeHL^2+ + H^+ ([6]; acidic solution, footnote a) | Formation constant lgKFeHL, Fe^3+ + HL^− ⇌ FeHL^2+ ([6]; calculated with lgK2, footnote b) |
| --- | --- | --- | --- | --- | --- | --- | --- | --- | --- | --- | --- | --- | --- |
| Oc1ccccc1/C=C/c1cccs1 [II] | 4.6 ± 0.1 | 159 | 15.7 ± 1 | – | – | – | – | – | – | – | – | – | – |
| O=c1cc(C=Cc2cccs2)occ1O [compound 7, 5-hydroxy-2-(2-(thiophen-2-yl)vinyl)-4H-pyran-4-one] | – | – | – | completely missed any tested bioactivity | completely missed any tested bioactivity | completely missed any tested bioactivity | – | – | – | – | – | – | – |
| O=c1cc(/C=C\c2ccccc2C(F)(F)F)occ1O [cis-2, (Z)-5-hydroxy-2-(2-(trifluoromethyl)styryl)-4H-pyran-4-one] | 458 ± 30.2 | – | > 1000 | – | – | – | 7.95 ± 0.10 | 4.38 ± 0.20 | > 1000 | – | – | – | – |
| O=c1cc(/C=C/c2ccsc2)occ1O [trans-6, (E)-5-hydroxy-2-(2-(thiophen-3-yl)vinyl)-4H-pyran-4-one] | 426 ± 41.8 | – | > 1000 | – | – | – | 7.81 ± 0.15 | 4.75 ± 0.10 | > 1000 | 12.56 ± 0.15 | – | – | – |
| O=c1cc(/C=C/c2ccccc2O)occ1O [trans-1, (E)-5-hydroxy-2-(2-hydroxystyryl)-4H-pyran-4-one] | 601 ± 34.5 | – | > 1000 | – | – | – | 8.9 ± 0.20 | – | 251 ± 45.6 | – | 7.25 ± 0.20 | 4.38 ± 0.20 ^a | 11.6 ± 0.2 ^b |
| O=c1cc(/C=C\c2ccc(Cl)cc2Cl)occ1O [cis-4, (Z)-2-(2,4-dichlorostyryl)-5-hydroxy-4H-pyran-4-one] | 638 ± 25.8 | – | 1000 ± 10.1 | – | – | – | 7.99 ± 0.15 | 4.16 ± 0.10 | > 1000 | 12.15 ± 0.15 | – | – | – |
| Oc1ccc(/C=C/c2cccs2)c(O)c1 [III] | 5.3 ± 1.8 | 26.8 | 46.6 ± 8.3 | – | – | – | – | – | – | – | – | – | – |

Reference: article PMC9573353 (Molecules, 2022)
